From patent US20230312587A1, “PTERIDINONE COMPOUNDS AND USES THEREOF” (Vertex Pharmaceutical Incorporated, priority 2018, published 2023) come the findings set out here.

The structures appear in SMILES notation. Read-outs that look alike come from different tables or passages of the source.

Test [1] concerns the target HEK293 membranes over-expressing WFS-1 (Homo sapiens (Human), UniProt O76024). The test can be described thus: Radioligand displacement assay (tritiated Compound 136 probe). It is filed as binding. The following applies: displacement of tritiated Compound 136. Summed up:
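WFS-1-overexpressing HEK293 membranes were preincubated 10 min with compound, then tritiated probe was added for 90 min at room temperature. Bound probe was collected by filtration on PEI-pretreated GF/B filters, washed and scintillation-counted. IC50 came from a 3-parameter fit of bound probe vs compound concentration.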

A further test deals with Hek293 empty vector. The test can be described thus: In vitro cell viability (CellTiter-Glo), Hek293 empty vector. It counts as cell-based. The following applies: read-out: Hek293 empty vector viability. The method, then:
HEK293 (ATCC, catalog #CRL-1573) cells are plated in 10 cm dishes (Corning, product #430167) into 10 mL of complete DMEM cell culture media [DMEM (Life Technologies, product #11960-051) media supplemented with 10% FBS (Hyclone, catalog #SH30071.03), antimycotic/antibiotic (Life Technologies, product #15240-062), and Glutamax (Life Technologies, product #35050-061)] at 3×10^6 cells per dish. Cells are allowed to attach and grow overnight at 37° C. in humidified 5% CO2. Cells are co-transfected with pVSV-G, pCMV-Gag/Pol and pCLPCX_WFS1 using Fugene 6 (Promega, catalog #E2691) according to manufacturer's protocol. Separately, cells are co-transfected with pVSV-G, pCMV-Gag/Pol and pCLPCX to produce control retrovirus. Cell culture media containing retrovirus (viral supernatant) is collected at 48 and 72 hours following transfection, filtered through a 0.4 uM filter, and stored at −80° C.
HEK293 cells are plated in 6 well plates (Corning, product #3516) in 2 mL of complete DMEM cell culture media at 1×10^5 cells well and allowed to attach and grow overnight at 37° C. in humidified 5% CO2. The following day, the media is replaced with viral supernatant to which 10 ug/ml of Polybrene® (Santa Cruz Biotech, catalog #sc-134220) is added. Viral supernatant is replaced 24 hours later with complete DMEM media. Transduced cells are selected in complete DMEM cell culture media containing 1 microgram/mL of puromycin (Life Technologies, catalog #A1113803).
HEK293 cells containing empty pCLPCx vector (HEK293 empty), HEK293 cells stably over-expression WFS1 (HEK293 WFS1), HepG2, and HepG2 cells where WFS1 was depleted via CRISPR/Cas9 (HepG2 WFS1 KO) cells were plated into 96-well black plates (Corning, product #3904) in 100 microliters of complete DMEM cell culture media [DMEM (Life Technologies, product #11960-051) media supplemented with 10% FBS (Hyclone, catalog #SH30071.03), antimycotic/antibiotic (Life Technologies, product #15240-062), and Glutamax (Life Technologies, product #35050-061)] at 1,000 (HEK293) or 5,000 (HepG2) cells per well. Cells were allowed to attach and grow overnight, after which compounds are added at various concentrations. Cell viability was assessed 96 hrs after compound addition with CellTiter-Glo reagent (Promega, catalog #G7570) according to manufacturer's protocol and measurement on a Pherastar luminescence plate reader (BMG Labtech).
The IC50s for the viability of both the Hek293 empty vector and WFS1 over-expressing cells are summarized in Table 47: A<0.06 μM; 0.06 μM≤B<0.6 μM; 0.6 μM≤C<3.0 μM; D≥3.0 μM.

Chain of HEK293 membranes over-expressing WFS-1 (O76024 whole entry): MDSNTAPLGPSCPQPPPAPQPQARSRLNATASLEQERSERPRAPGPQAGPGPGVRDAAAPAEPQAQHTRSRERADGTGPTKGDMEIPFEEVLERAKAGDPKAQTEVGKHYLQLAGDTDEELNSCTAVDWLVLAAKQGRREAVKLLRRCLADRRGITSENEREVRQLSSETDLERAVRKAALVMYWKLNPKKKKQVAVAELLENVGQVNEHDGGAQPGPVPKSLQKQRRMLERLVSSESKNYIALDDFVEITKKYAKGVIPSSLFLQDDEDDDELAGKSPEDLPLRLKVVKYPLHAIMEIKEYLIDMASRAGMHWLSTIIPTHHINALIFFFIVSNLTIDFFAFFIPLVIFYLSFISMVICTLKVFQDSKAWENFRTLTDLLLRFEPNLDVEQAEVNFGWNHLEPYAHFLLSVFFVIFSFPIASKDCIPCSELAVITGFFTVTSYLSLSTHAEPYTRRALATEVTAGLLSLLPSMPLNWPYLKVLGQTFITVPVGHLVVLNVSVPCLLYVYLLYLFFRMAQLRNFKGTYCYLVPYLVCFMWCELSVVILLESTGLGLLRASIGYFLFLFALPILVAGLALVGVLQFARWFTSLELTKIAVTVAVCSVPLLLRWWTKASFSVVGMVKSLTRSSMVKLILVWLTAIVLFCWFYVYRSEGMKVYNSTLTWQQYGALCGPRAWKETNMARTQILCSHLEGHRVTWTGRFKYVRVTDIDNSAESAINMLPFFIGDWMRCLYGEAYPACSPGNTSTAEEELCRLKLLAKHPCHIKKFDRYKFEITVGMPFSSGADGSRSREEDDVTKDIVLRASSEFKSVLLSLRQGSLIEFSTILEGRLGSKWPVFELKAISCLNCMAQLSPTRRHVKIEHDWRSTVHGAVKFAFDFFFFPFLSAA

Consider `Cc1nc(N[C@H]2CC[C@H](Oc3ccc(C(F)(F)F)nc3)C2)nc2c1NC(=O)[C@H](C)N2C` (single isomer, unassigned) [Compound 376], for which the IC50 in test [1] was 60 to 600 nM; with Hek293 empty vector (Homo sapiens, HEK293), no less than 3000 nM.

Turning to `Cc1nc(N[C@H]2CC[C@H](Oc3ccc(C(F)(F)F)nc3)C2)nc2c1NC(=O)[C@H](C)N2C` (single isomer, unassigned) [Compound 377], the IC50 in test [1] is less than 60 nM; in the test with Hek293 empty vector (Hek293 empty vector), no less than 3000 nM.

As to `COc1c(F)cc(Cn2cc(CNc3nc(C)c4c(n3)N(C)[C@@H](C)C(=O)N4)cn2)cc1F` [Compound 46, (7S)-2-(((1-(3,5-difluoro-4-methoxybenzyl)-1H-pyrazol-4-yl)methyl)amino)-4,7,8-trimethyl-7,8-dihydropteridin-6(5H)-one], the IC50 was less than 60 nM in test [1] and no less than 3000 nM in the test on Hek293 empty vector (Homo sapiens, HEK293).

Consider `Cc1nc(NCc2cnn(Cc3ccc(F)nc3)c2)nc2c1NC(=O)[C@H](C)N2C` [Compound 77], for which the IC50 is 60 to 600 nM in test [1] and no less than 3000 nM in the test on Hek293 empty vector (Homo sapiens, HEK293).

As to `Cc1nc(NCc2cnn(Cc3cccc(C(C)C)c3)c2)nc2c1NC(=O)[C@H](C)N2C` [Compound 80, (7S)-2-(((1-(3-isopropylbenzyl)-1H-pyrazol-4-yl)methyl)amino)-4,7,8-trimethyl-7,8-dihydropteridin-6(5H)-one], the IC50 in test [1] is less than 60 nM; with Hek293 empty vector (Homo sapiens, HEK293), no less than 3000 nM.

Turning to `COc1cc(F)ccc1Cn1cc(CNc2nc(C)c3c(n2)N(C)[C@@H](C)C(=O)N3)cn1` [Compound 83, (7S)-2-(((1-(4-fluoro-2-methoxybenzyl)-1H-pyrazol-4-yl)methyl)amino)-4,7,8-trimethyl-7,8-dihydropteridin-6(5H)-one], the IC50 in test [1] is less than 60 nM; in the test with Hek293 empty vector (Homo sapiens, HEK293) it was no less than 3000 nM.

In the case of `Cc1cc(F)ncc1Cn1cc(CNc2nc(C)c3c(n2)N(C)[C@@H](C)C(=O)N3)cn1` [Compound 94, (7S)-2-(((1-((6-fluoro-4-methylpyridin-3-yl)methyl)-1H-pyrazol-4-yl)methyl)amino)-4,7,8-trimethyl-7,8-dihydropteridin-6(5H)-one], the IC50 in test [1] was 60 to 600 nM; in the test on Hek293 empty vector (Homo sapiens, HEK293), no less than 3000 nM.

In the case of `Cc1nc(NCc2cnn(Cc3cc(F)c(F)c(F)c3)c2)nc2c1NC(=O)[C@H](C)N2C` [Compound 122, (7S)-4,7,8-trimethyl-2-(((1-(3,4,5-trifluorobenzyl)-1H-pyrazol-4-yl)methyl)amino)-7,8-dihydropteridin-6(5H)-one], the IC50 in test [1] was less than 60 nM; with Hek293 empty vector (Homo sapiens, HEK293) it was no less than 3000 nM.

Turning to `Cc1nc(NCc2cnn([C@H]3CCN(C4CCC(F)(F)CC4)C3)c2)nc2c1NC(=O)[C@H](C)N2C` [Compound 142, (7S)-2-(((1-((S)-1-(4,4-difluorocyclohexyl)pyrrolidin-3-yl)-1H-pyrazol-4-yl)methyl)amino)-4,7,8-trimethyl-7,8-dihydropteridin-6(5H)-one], the IC50 in test [1] was 60 to 600 nM; in the test with Hek293 empty vector (Homo sapiens, HEK293) it was no less than 3000 nM.

As to `Cc1nc(NCc2ccc(-n3cc(C(F)(F)F)cn3)nc2)nc2c1NC(=O)[C@H](C)N2C` [Compound 143, (S)-4,7,8-trimethyl-2-(((6-(4-(trifluoromethyl)-1H-pyrazol-1-yl)pyridin-3-yl)methyl)amino)-7,8-dihydropteridin-6(5H)-one], the IC50 in test [1] was 60 to 600 nM; in the test with Hek293 empty vector (Homo sapiens, HEK293), no less than 3000 nM.

Regarding `Cc1nc(NCc2cnn([C@@H]3C[C@@H]3c3ccc(F)cc3)c2)nc2c1NC(=O)[C@H](C)N2C` [Compound 154, (7S)-2-(((1-((1R,2R)-2-(4-fluorophenyl)cyclopropyl)-1H-pyrazol-4-yl)methyl)amino)-4,7,8-trimethyl-7,8-dihydropteridin-6(5H)-one], the IC50 is less than 60 nM in test [1] and no less than 3000 nM in the test with Hek293 empty vector (Homo sapiens, HEK293).

`Cc1nc(NCc2cnn(Cc3cc(C(F)(F)F)nn3C)c2)nc2c1NC(=O)[C@H](C)N2C` [Compound 160, (7S)-4,7,8-trimethyl-2-(((1-((1-methyl-3-(trifluoromethyl)-1H-pyrazol-5-yl)methyl)-1H-pyrazol-4-yl)methyl)amino)-7,8-dihydropteridin-6(5H)-one]: the IC50 in test [1] was 60 to 600 nM; with Hek293 empty vector (Homo sapiens, HEK293), no less than 3000 nM.

With `Cc1ccc(Cn2cc(CNc3nc(C)c4c(n3)N(C)[C@@H](C)C(=O)N4)cn2)cn1` [Compound 173, (7S)-4,7,8-trimethyl-2-(((1-((6-methylpyridin-3-yl)methyl)-1H-pyrazol-4-yl)methyl)amino)-7,8-dihydropteridin-6(5H)-one], the IC50 is 600 to 3000 nM in test [1] and no less than 3000 nM with Hek293 empty vector (Homo sapiens, HEK293).

Turning to `Cc1nc(NCc2cnn([C@@H](C)c3ccc(C(F)(F)F)nc3)c2)nc2c1NC(=O)[C@H](C)N2C` [Compound 174, (7S)-4,7,8-Trimethyl-2-(((1-((S)-1-(6-(trifluoromethyl)pyridin-3-yl)ethyl)-1H-pyrazol-4-yl)methyl)amino)-7,8-dihydropteridin-6(5H)-one], the IC50 in test [1] is 60 to 600 nM; in the test with Hek293 empty vector (Homo sapiens, HEK293), no less than 3000 nM.

In the case of `CC[C@H]1C(=O)Nc2c(C)nc(NCc3cnn(Cc4ccc(C(F)(F)F)nc4)c3)nc2N1C` [Compound 186, (7S)-7-ethyl-4,8-dimethyl-2-(((1-((6-(trifluoromethyl)pyridin-3-yl)methyl)-1H-pyrazol-4-yl)methyl)amino)-7,8-dihydropteridin-6(5H)-one], the IC50 is 60 to 600 nM in test [1] and no less than 3000 nM in the test on Hek293 empty vector (Homo sapiens, HEK293).

With `Cc1nc(C(F)(F)F)ccc1Cn1cc(CNc2nc(C)c3c(n2)N(C)[C@@H](C)C(=O)N3)cn1` [Compound 188, (S)-4,7,8-trimethyl-2-(((1-((2-methyl-6-(trifluoromethyl)pyridin-3-yl)methyl)-1H-pyrazol-4-yl)methyl)amino)-7,8-dihydropteridin-6(5H)-one], the IC50 is 60 to 600 nM in test [1] and no less than 3000 nM with Hek293 empty vector (Homo sapiens, HEK293).

For the compound `Cc1nc(NCc2cnn(Cc3ccnc(C(F)(F)F)c3)c2)nc2c1NC(=O)[C@H](C)N2C` [Compound 207, (7S)-4,7,8-trimethyl-2-(((1-((2-(trifluoromethyl)pyridin-4-yl)methyl)-1H-pyrazol-4-yl)methyl)amino)-7,8-dihydropteridin-6(5H)-one], the IC50 is 60 to 600 nM in test [1] and no less than 3000 nM with Hek293 empty vector (Homo sapiens, HEK293).

`Cc1nc(N[C@H]2C[C@H](Oc3cc(F)c(F)c(F)c3)C2)nc2c1NC(=O)[C@H](C)N2C` [Compound 246, (7S)-4,7,8-trimethyl-2-((trans-3-(3,4,5-trifluorophenoxy)cyclobutyl)amino)-7,8-dihydropteridin-6(5H)-one]: the IC50 is 60 to 600 nM in test [1] and no less than 3000 nM with Hek293 empty vector (Homo sapiens, HEK293).

In the case of `Cc1nc(N[C@H]2C[C@H](Oc3ccc(F)cc3)C2)nc2c1N(C)C(=O)[C@H](C)N2C` [Compound 250, (7S)-2-((trans-3-(4-fluorophenoxy)cyclobutyl)amino)-4,5,7,8-tetramethyl-7,8-dihydropteridin-6(5H)-one], the IC50 in test [1] was 60 to 600 nM; with Hek293 empty vector (Homo sapiens, HEK293) it was no less than 3000 nM.

With `Cc1nc(N[C@H]2C[C@H](Oc3ccc(C(F)(F)F)nc3)C2)nc2c1NC(=O)[C@H](C)N2C` [Compound 324, (7S)-4,7,8-trimethyl-2-((trans-3-((6-(trifluoromethyl)pyridin-3-yl)oxy)cyclobutyl)amino)-7,8-dihydropteridin-6(5H)-one], the IC50 in test [1] was less than 60 nM; in the test with Hek293 empty vector (Homo sapiens, HEK293) it was no less than 3000 nM.

`Cc1nc(N[C@H]2C[C@H](Sc3cc(F)c(F)c(F)c3)C2)nc2c1NC(=O)[C@H](C)N2C` [Compound 329, (7S)-4,7,8-trimethyl-2-((trans-3-((3,4,5-trifluorophenyl)thio)-cyclobutyl)amino)-7,8-dihydropteridin-6(5H)-one]: the IC50 was 60 to 600 nM in test [1] and no less than 3000 nM in the test with Hek293 empty vector (Homo sapiens, HEK293).

As for `Cc1nc(N[C@H]2C[C@@H](Sc3cc(F)c(F)c(F)c3)C2)nc2c1NC(=O)[C@H](C)N2C` [Compound 332, (7S)-4,7,8-trimethyl-2-((cis-3-((3,4,5-trifluorophenyl)thio)cyclobutyl)amino)-7,8-dihydropteridin-6(5H)-one], the IC50 in test [1] is 60 to 600 nM; with Hek293 empty vector (Homo sapiens, HEK293) it was no less than 3000 nM.
